# US12370158B2, “Analogs of CYP-eicosanoids for use in treating or preventing a disorder associated with neovascularization and/or inflammation” (OMEICOS Therapeutics GmbH, priority 2016, dated 2025)
# Key:
# [1] = tested on: double transgenic rats (dTGR), renal tissue; experiment: Renal inflammation (ED1 macrophage infiltration) in dTGR rat model of severe hypertension and end-organ damage; assay type: in vivo; conditions: 1.33 mg/kg twice daily by gavage for 21 days, compared to vehicle treated dTGRs
# Source text: (§1) The aim of this study was to assess and compare the effect of continuous oral treatment of a metabolically robust analog of 17,18-EEQ (Comp-02) or vehicle (isotonic salt solution) on physiological parameters, clinical chemistry and end-organ damage in male double transgenic rats (dTGR). Non-treated Sprague-Dawley rats (SD) of same genetic background were used as control. Double transgenic rats, overexpressing the human renin and angiotensinogen genes, develop severe hypertension and are a model for Ang-II induced end-organ damage with cardiac hypertrophy and kidney failure. Moreover, the dTGR model features severe […], cardiac hypertrophy and nephrosclerosis with marked fibrosis and inflammation.
# (§2) Before start of the experiment the animals were randomly assigned to either compound or vehicle treatment. […] Comp-02 was prepared in 61.6 ppm Na2CO3 and 0.9% NaCl ready to use solution for application, while dTGR animals were dosed twice daily with 0.9% NaCl ready to use solution for vehicle control. […] Samples were analysed using a Zeiss Axioplan-2 imaging microscope with the digital image-processing program AxioVision 4.8. […] Data were expressed as sum of 20 randomly chosen view fields, non-overlapping fields per section. […]
# [2] = Ocular pharmacokinetics of Comp-02 after topical administration (instillation) in rabbit; assay type: in vivo, pigmented HY79b rabbits; conditions: checked by ophthalmoscopy
# [3] = tested on: double transgenic rats (dTGR), cardiac tissue; experiment: Cardiac inflammation (ED1 macrophage infiltration) in dTGR rat model of severe hypertension and end-organ damage; assay type: in vivo; conditions: 1.33 mg/kg twice daily by gavage for 21 days, compared to vehicle treated dTGRs
# Source text: as §1, §2
# HL-1 cells = experiment: Viability of LPS-challenged HL-1 cardiomyocytes; assay type: cell-based, mouse; conditions: 10 nM, 100 nM or 1 μM, 1 μg/mL LPS, 24 h
# Protocol: A cardiomyocyte cell line was used (mouse derived immortalized cardiomyocytes, HL-1 cells). Cells were either treated with vehicle (0.01% ethanol) or different concentrations of test compound (Comp-02: cE=10 nM, 100 nM or 1 μM). Simultaneously, the cells were challenged with 1 μg/mL lipopolysaccharide (LPS). After 24 h of incubation, the cells were processed to measure viability.
# (§3) In order to investigate the anti-inflammatory potential of compounds being part of the invention in vitro, a cardiomyocyte cell line was used (mouse derived immortalized cardiomyocytes, HL-1 cells). Cells were either treated with vehicle (0.01% ethanol) or different concentrations of test compound (Comp-02: cE=10 nM, 100 nM or 1 μM). Simultaneously, the cells were challenged with 1 μg/mL lipopolysaccharide (LPS). After 24 h of incubation, the cells were processed to measure viability (FIG. 2) and release of the pro-inflammatory cytokine TNF alpha (FIG. 3).
# [4] = Ocular pharmacokinetics of Comp-02 after intravitreal injection in rabbit; assay type: in vivo, pigmented HY79b rabbits; conditions: ocular examination with a slit lamp
# [5] = Ocular pharmacokinetics of Comp-02 after oral administration in rabbit; assay type: in vivo, pigmented HY79b rabbits; conditions: for Comp-02 content (below lower limit of detection): oral; for Cmax / Tmax / AUC / half-life: male, pigmented HY79b, rabbit; for Cmax: single oral 2 mg/kg (0.2 mg/mL); for Tmax / AUC / half-life: single oral 2 mg/kg; for AUC: read-out: AUC1-48 hours; for half-life: calculated from the Tmax value
# Protocol: (§4) Study design: To gain insight into the distribution behaviour of synthetic 17,18-EEQ-agonists, ocular pharmacokinetic studies were performed in pigmented HY79b rabbits. Briefly, 15 male rabbits per administration route were anesthetized at the time-points for sampling indicated in tables 2-4 by an intramuscular injection of a mixed solution of xylazine and ketamine. Blood collection was performed by cardiac puncture in K3EDTA tubes and centrifuged at 2000 g, 10 min at 4° C. Approximately 3 mL of plasma were sampled, put in plastic tubes, snap frozen in liquid nitrogen and stored at −80° C. until assay. Then animals were euthanized by intracardiac injection of overdosed pentobarbital. This method is one of the recommended methods for euthanasia by the European authorities (French decree No. 2013-118, dated Feb. 1, 2013 publishing the European directive 2010/63/UE. J.Offic. Rp. Fr. 2013; Text 24 out of 130). Immediately after euthanasia, samples from both eyes were quickly and carefully taken, put in plastic tubes, weighed, snap frozen in liquid nitrogen and stored at −80° C. until assay. Content of Comp-02 was determined in ocular samples and plasma following an established RRLCMS/MS method. The results are presented in Tables 5-7 and are expressed as mean values for the different pharmacokinetic parameters. Chromatogram integration was done using MassHunter software. Apparent Cmax and Tmax, T½, AUC1-48 h were calculated by Excel® software. Concentrations were expressed in ng/g or ng/mL of tissue/eye compartment.
# [6] = Ocular pharmacokinetics of Comp-02 after topical administration (instillation) in rabbit; assay type: in vivo, pigmented HY79b rabbits; conditions: male, pigmented HY79b, topical or ocular, 50 μl of 1 mg/mL in both eyes; for Cmax: single instillation 50 μl (1 mg/mL) in both eyes; for Tmax / half-life / AUC: topical; for half-life: calculated from the Tmax value; for AUC: read-out: AUC1-48 hours
# Protocol: as §4
# [7] = tested on: TNF alpha release from the HL-1 cells; experiment: TNF alpha release from HL-1 cardiomyocytes; assay type: cell-based, mouse; conditions: 24 h
# Protocol: A cardiomyocyte cell line was used (mouse derived immortalized cardiomyocytes, HL-1 cells). Cells were either treated with vehicle (0.01% ethanol) or different concentrations of test compound (Comp-02: cE=10 nM, 100 nM or 1 μM). Simultaneously, the cells were challenged with 1 μg/mL lipopolysaccharide (LPS). After 24 h of incubation, the cells were processed to measure release of the pro-inflammatory cytokine TNF alpha.
# as §3
# [8] = Ocular pharmacokinetics of Comp-02 after intravitreal injection in rabbit; assay type: in vivo, pigmented HY79b rabbits; conditions: for AUC / Tmax / half-life / Cmax: male, pigmented HY79b; for AUC / Tmax / half-life: intravitreal; for AUC: read-out: AUC1-48 hours; for half-life: calculated from the Tmax value; for Cmax: topical or ocular, single vitreal injection of 50 μl (1 mg/mL) in both eyes
# Protocol: as §4
# [9] = other: intravitreal injection, 50 μl of 1 mg/mL in both eyes, vitreous
# [10] = other: intravitreal, 50 µg/eye, choroid
# [11] = other: intravitreal, 50 µg/eye, plasma
# [12] = other: intravitreal, 50 µg/eye, retina
structure (smiles),measurement,setting,value
"CNC(=O)C(=O)NCCCC/C=C\CCCCCCCOCC(=O)O [Comp-02, 2-((13-(2-(methylamino)-2-oxoacetamido)tridec-8(Z)-en-1-yl)oxy)acetic acid]",Macrophage infiltration (ED1 positive cells) in renal tissue,[1],significant reduction
same,Macroscopic tolerability of the Comp-02 formulation,[2],very well tolerated
same,Macrophage infiltration (ED1 positive cells) in cardiac tissue,[3],significant reduction
same,Effect on LPS-induced reduction in cell viability (cytotoxic effect),HL-1 cells,dose-dependently reversed
same,Macroscopic tolerability of the Comp-02 formulation,[4],very well tolerated
same,Comp-02 content (below lower limit of detection),"[5]; aqueous humor samples, except for one out of 15 animals",< 0.1 ng/10 μl injected
same,Cmax,[5]; aqueous humor,8 ng/mL
same,Tmax,[5]; aqueous humor,1 h
same,AUC,[5]; aqueous humor,12 ng·h/mL
same,Cmax,[5]; choroid,246 ng/g
same,Tmax,[5]; choroid,1 h
same,half-life,[5]; choroid,9 h
same,AUC,[5]; choroid,1390 ng·h/mL
same,Cmax,[5]; plasma,1210 ng/mL
same,Tmax,[5]; plasma,1 h
same,half-life,[5]; plasma,6 h
same,AUC,[5]; plasma,6330 ng·h/mL
same,Cmax,[5]; retina,15 ng/g
same,Tmax,[5]; retina,4 h
same,Comp-02 content (below lower limit of detection),"[5]; retina samples, except for two out of 15 animals",< 0.1 ng/10 μl injected
same,Cmax,[6]; aqueous humor,88 ng/mL
same,Tmax,[6]; aqueous humor,1 h
same,half-life,[6]; aqueous humor,1 h
same,AUC,[6]; aqueous humor,324 ng·h/mL
same,Cmax,[6]; choroid,79 ng/g
same,Tmax,[6]; choroid,1 h
same,half-life,[6]; choroid,0.7 h
same,Cmax,[6]; plasma,31 ng/mL
same,Tmax,[6]; plasma,0.5 h
same,half-life,[6]; plasma,5.4 h
same,AUC,[6]; plasma,262 ng·h/mL
same,Cmax,[6]; retina,24 ng/g
same,Tmax,[6]; retina,1 h
same,LPS-induced TNF alpha release,"[7]; 10 nM, 100 nM or 1 μM, 1 μg/mL LPS",significantly and dose-dependently reduced
same,"Influence on TNF alpha production, compound alone",[7]; Comp-02 alone (no LPS),did not have an influence
same,"Ocular exposure in the posterior eye, comparison of routes",[8]; intravitreal injection compared to oral and topical administration,highest ocular exposures
same,AUC,"[8]; other: intravitreal injection, 50 μl of 1 mg/mL in both eyes, choroid",63300 ng·h/mL
same,AUC,"[8]; other: intravitreal injection, 50 μl of 1 mg/mL in both eyes, plasma",287 ng·h/mL
same,AUC,"[8]; other: intravitreal injection, 50 μl of 1 mg/mL in both eyes, retina",79900 ng·h/mL
same,Tmax,[8]; [9],1 h
same,AUC,[8]; [9],55400 ng·h/mL
same,Tmax,[8]; [10],1 h
same,half-life,[8]; [10],2.4 h
same,Tmax,[8]; [11],2 h
same,half-life,[8]; [11],4.2 h
same,Tmax,[8]; [12],1 h
same,half-life,[8]; [12],2.6 h
same,half-life,"[8]; other: intravitreal, 50 µg/eye, vitreous",4.6 h
same,Cmax,"[8]; 50 μl of 1 mg/mL in both eyes, choroid",15000 ng/g
same,Cmax,"[8]; 50 μl of 1 mg/mL in both eyes, plasma",19 ng/mL
same,Cmax,"[8]; 50 μl of 1 mg/mL in both eyes, retina",10100 ng/g
same,Cmax,"[8]; 50 μl of 1 mg/mL in both eyes, vitreous",6650 ng/mL
